According to US20040197338A1, “Respiratory syncytial virus” (priority 2001, published 2004):

Test: Peptide solubility
Type: physicochemical
Details: for solubility on resuspension: resuspended at 1 mg/ml, other peptides in water

## CC[C@H](C)[C@H](NC(=O)[C@H](CCC(N)=O)NC(=O)[C@@H](NC(=O)[C@H](CCC(=O)O)NC(=O)[C@@H](NC(=O)[C@@H](NC(=O)[C@H](CC(C)C)NC(=O)[C@H](CO)NC(=O)[C@H](C)NC(=O)[C@H](CC(C)C)NC(=O)[C@@H](NC(=O)[C@H](CC(C)C)NC(=O)[C@@H](NC(=O)[C@H](CCC(=O)O)NC(=O)[C@H](Cc1ccccc1)NC(=O)[C@H](CCCCN)NC(=O)[C@H](CCSC)NC(=O)[C@H](CCC(=O)O)NC(=O)[C@H](CCCCN)NC(=O)CN)C(C)C)[C@@H](C)O)[C@@H](C)O)[C@@H](C)O)[C@@H](C)CC)C(=O)O [N8]
  solubility in water / PBS: solubility problems in water
  solubility on resuspension: required 10% (v/v) acetic acid for solubility

## CC[C@H](C)[C@H](NC(=O)CN)C(=O)N[C@@H](Cc1ccccc1)C(=O)N[C@@H](C)C(=O)NCC(=O)N[C@@H](CC(C)C)C(=O)N[C@@H](Cc1ccccc1)C(=O)N[C@@H](CCSC)C(=O)N[C@@H](CC(N)=O)C(=O)N[C@@H](C)C(=O)N[C@@H](Cc1ccc(O)cc1)C(=O)NCC(=O)N[C@@H](C)C(=O)NCC(=O)N[C@@H](CCC(N)=O)C(=O)N[C@H](C(=O)N[C@@H](CCSC)C(=O)N[C@@H](CC(C)C)C(=O)N[C@@H](CCCNC(=N)N)C(=O)N[C@@H](Cc1c[nH]c2ccccc12)C(=O)O)C(C)C [N17]
  solubility in water / PBS: solubility problems in water
  solubility on resuspension: required 10% (v/v) acetic acid for solubility

## CC[C@H](C)[C@H](NC(=O)[C@H](CC(C)C)NC(=O)CNC(=O)[C@@H](NC(=O)[C@H](Cc1ccccc1)NC(=O)[C@H](CCCCN)NC(=O)[C@H](Cc1c[nH]cn1)NC(=O)[C@H](CC(N)=O)NC(=O)[C@H](C)NC(=O)[C@H](CC(=O)O)NC(=O)[C@H](CCC(=O)O)NC(=O)[C@@H](NC(=O)[C@@H](NC(=O)[C@H](CC(C)C)NC(=O)[C@H](CC(C)C)NC(=O)[C@H](CCSC)NC(=O)CNC(=O)[C@H](CS)NC(=O)[C@H](CC(C)C)NC(=O)[C@@H](N)CCCCN)[C@@H](C)CC)[C@@H](C)O)[C@@H](C)O)C(=O)O [peptide N4]
  solubility in water / PBS: soluble in PBS
